From patent US5358951A, “Angiotensin II receptor blocking 2, 3, 6 substituted quinazolinones” (American Cyanamid Company, priority 1993, dated 1994)

Test system: vasopressor response of angiotensin II
Experiment: AII Challenge: antagonism of angiotensin II vasopressor response;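 as to Response Average Change: post-dose Angiotensin II-evoked rise in systolic blood pressure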
Assay type: in vivo
Conditions: 3 mg/kg I.V.; for inhibition in vivo at 3 mg/kg: Rattus norvegicus, iv
Excerpt: Conscious Male Okamoto-Aoki SHR, 16-20 weeks old, weighing approximately 330 g are purchased from Charles River Labs (Wilmington, Mass.). Conscious rats are restrained in a supine position with elastic tape. The area at the base of the tail is locally anesthetized by subcutaneous infiltration with 2% procaine. The ventral caudal artery and vein are isolated, and a cannula made of polyethylene (PE) 10-20 tubing (fused together by heat) is passed into the lower abdominal aorta and vena cava, respectively. The cannula is secured, heparinized (1,000 I.U./ml), sealed and the wound is closed. The animals are placed in plastic restraining cages in an upright position. The cannula is attached to a Statham P23 Db pressure transducer, and pulsatile blood pressure is recorded to 10-15 minutes with a Gould Brush recorder. (Chan et al., (Drug Development Res., 18:75-94, 1989). Angiotensin II (human sequence, Sigma Chem. Co., St. Louis, Mo.) of 0.05 and 0.1 ug/kg i.v. is injected into all rats (predosing response). Then a test compound, vehicle or a known angiotensin II antagonist is administered i.v., i.p. or orally to each set of rats. The two doses of angiotensin II are given to each rat again at 30, 60, 90, 120, 180, 240 and 300 minutes post dosing the compound or vehicle. The vasopressor response of angiotensin II is measured for the increase in systolic blood pressure in mmHg. The percentage of antagonism or blockade of the vasopressor response of angiotensin II by a compound is calculated using the vasopressor response (increase in systolic blood pressure) of angiotensin II of each rat predosing the compound as 100%.

[1] = AII 0.05 mcg/kg IV, 30 min post dose
[2] = AII 0.05 mcg/kg IV, 60 min post dose
[3] = AII 0.05 mcg/kg IV, 90 min post dose
[4] = AII 0.05 mcg/kg IV, 120 min post dose
[5] = AII 0.05 mcg/kg IV, 180 min post dose
[6] = AII 0.05 mcg/kg IV, 240 min post dose
[7] = AII 0.05 mcg/kg IV, 300 min post dose
[8] = AII 0.1 mcg/kg IV, 30 min post dose
[9] = AII 0.1 mcg/kg IV, 60 min post dose
[10] = AII 0.1 mcg/kg IV, 90 min post dose
[11] = AII 0.1 mcg/kg IV, 120 min post dose
[12] = AII 0.1 mcg/kg IV, 180 min post dose
[13] = AII 0.1 mcg/kg IV, 240 min post dose
[14] = AII 0.1 mcg/kg IV, 300 min post dose
[15] = 0.5 h, AII 0.05 mcg/kg IV, 30 min post dose
[16] = 0.5 h, AII 0.1 mcg/kg IV, 30 min post dose
[17] = 1 h, AII 0.05 mcg/kg IV, 60 min post dose
[18] = 1 h, AII 0.1 mcg/kg IV, 60 min post dose
[19] = 2 h, AII 0.05 mcg/kg IV, 120 min post dose
[20] = 2 h, AII 0.1 mcg/kg IV, 120 min post dose
[21] = 3 h, AII 0.05 mcg/kg IV, 180 min post dose
[22] = 3 h, AII 0.1 mcg/kg IV, 180 min post dose
[23] = 4 h, AII 0.05 mcg/kg IV, 240 min post dose
[24] = 4 h, AII 0.1 mcg/kg IV, 240 min post dose
[25] = 5 h, AII 0.05 mcg/kg IV, 300 min post dose
[26] = 5 h, AII 0.1 mcg/kg IV, 300 min post dose
[27] = […], AII 0.05 mcg/kg IV, 90 min post dose
[28] = […], AII 0.1 mcg/kg IV, 90 min post dose

SMILES | Response Average Change [1] [mmHg] | Response Average Change [2] [mmHg] | Response Average Change [3] [mmHg] | Response Average Change [4] [mmHg] | Response Average Change [5] [mmHg] | Response Average Change [8] [mmHg] | Response Average Change [9] [mmHg] | Response Average Change [10] [mmHg] | Response Average Change [11] [mmHg] | Response Average Change [12] [mmHg] | inhibition in vivo at 3 mg/kg [15] [%] | inhibition in vivo at 3 mg/kg [16] [%] | inhibition in vivo at 3 mg/kg [17] [%] | inhibition in vivo at 3 mg/kg [18] [%] | inhibition in vivo at 3 mg/kg [19] [%] | inhibition in vivo at 3 mg/kg [20] [%] | inhibition in vivo at 3 mg/kg [21] [%] | inhibition in vivo at 3 mg/kg [22] [%] | inhibition in vivo at 3 mg/kg [27] [%] | inhibition in vivo at 3 mg/kg [28] [%] | further results
CCCCc1nc2ccc([C@]3(C)C[C@@H]4CCCCN4O3)cc2c(=O)n1Cc1ccc(-c2ccccc2-c2nnn[nH]2)cc1 (relative stereo) [Example 68, Trans-2-Butyl-6-(hexahydro-2-methyl-2H-isoxazolo[2,3-a]pyridin-2-yl)-3-[[2'-(1H-tetrazol-5-yl)[1,1'-biphenyl]-4-yl]methyl]-4(3H)-quinazolinone] | 2.5 | 2.5 | 7.5 | 11 | 10 | 5 | 9 | 9 | 10 | 20 | 95 | 91 | 95 | 84 | 79 | 82 | 81 | 64 | 85 | 84 | Response Average Change [6]: 20 mmHg; Response Average Change [7]: 10 mmHg; Response Average Change [13]: 17.5 mmHg; Response Average Change [14]: 22.5 mmHg; inhibition in vivo at 3 mg/kg [23]: 61%; inhibition in vivo at 3 mg/kg [24]: 69%; inhibition in vivo at 3 mg/kg [25]: 81%; inhibition in vivo at 3 mg/kg [26]: 60%
CCCCc1nc2ccc([C@@]3(C)C[C@@H]4CCCCN4O3)cc2c(=O)n1Cc1ccc(-c2ccccc2-c2nnn[nH]2)cc1 (relative stereo) [Example 67, Cis-2-Butyl-6-(hexahydro-2-methyl-2H-isoxazolo[2,3-a]pyridin-2-yl)-3-[[2'-(1H-tetrazol-5-yl)[1,1'-biphenyl]-4-yl]methyl]-4(3H)-quinazolinone] | 20 | 7.5 | 7.5 | 12.5 | 15 | 14 | 15 | 12.5 | 10 | 11.5 | 61 | 77 | 85 | 75 | 76 | 83 | 71 | 81 | 85 | 79 | Response Average Change [6]: 7.5 mmHg; Response Average Change [7]: 14 mmHg; Response Average Change [13]: 11 mmHg; Response Average Change [14]: 17.5 mmHg; inhibition in vivo at 3 mg/kg [23]: 85%; inhibition in vivo at 3 mg/kg [24]: 82%; inhibition in vivo at 3 mg/kg [25]: 73%; inhibition in vivo at 3 mg/kg [26]: 71%
CCCCc1nc2ccc([C@H]3C[C@]4(C)CCCCN4O3)cc2c(=O)n1Cc1ccc(-c2ccccc2-c2nnn[nH]2)cc1 (relative stereo) [Example 65] | 2.5 | 15.5 | 11 | 8 | 25 | 2.5 | 11 | 16.5 | 12.5 | 17.5 | 95 | 95 | 66 | 77 | 82 | 74 | 45 | 64 | 76 | 66 | 
CCCCc1nc2ccc([C@]3(C)C[C@@H]4CCC(C)(C)N4O3)cc2c(=O)n1Cc1ccc(-c2ccccc2-c2nnn[nH]2)cc1 (relative stereo) [Example 69, Trans-2-Butyl-6-(hexahydro-2,6,6-trimethylpyrrolo[1,2-b]isoxazol-2-yl)-3-[[2'-(1H-tetrazol-5-yl)[1,1'-biphenyl]-4-yl]methyl]-4(3H)-quinazolinone] | 0 | 2.5 | 2.5 | 5 | 2.5 | 0 | 0 | 25 | 2.5 | 0 | 100 | 100 | 92 | 100 | 83 | 94 | 92 | 100 | 92 | 94 | Response Average Change [6]: 5 mmHg; Response Average Change [7]: 10 mmHg; Response Average Change [13]: 7.5 mmHg; Response Average Change [14]: 12.5 mmHg; inhibition in vivo at 3 mg/kg [23]: 83%; inhibition in vivo at 3 mg/kg [24]: 81%; inhibition in vivo at 3 mg/kg [25]: 67%; inhibition in vivo at 3 mg/kg [26]: 69%
